A short description of series [1]: Water solubility testing of compounds (HPLC). The settings on record: deionized water, water, Water-solubility, 37 °C.
Series [2] deals with mouse ear atopic dermatitis. As to the kind of experiment: MC903-induced atopic dermatitis of the ear, ointment: ear thickness, dermatitis score, lesions. It is filed as in vivo. The settings on record: for inhibition rate of ear thickness increase: final day. As to the method:
(1) Preparation of Oil Phase: Weigh white petrolatum, light liquid paraffin, glyceryl monostearate, ethylparaben, and cetyl alcohol. Heat to 65° C. while stirring until dissolved. Slowly add the dissolved active pharmaceutical ingredient (API) while continuing to stir until uniformly mixed. Set aside.
(2) Aqueous Phase Preparation: Weigh purified water and Tween 80, heat to 70° C., stir to dissolve, and set aside;
(3) Emulsification: Slowly add the aqueous phase to the oil phase while maintaining 65° C., homogenize, and continue stirring for 30 min;
(4) Cooling: Stop heating, continue stirring, gradually reduce to room temperature, cool to form an ointment, and fill containers.
(§1) Dissolve these substances in a small amount of propylene glycol, then place the resulting solution into the aforementioned pre-cooled blank ointment base. Finally, add water to make the total mass up to 10 g, and grind the mixture thoroughly in a mortar.
(§2) Except for the Normal group, all other groups underwent AD modeling: 20 μL of MC903 solution (also known as calcipotriol, purchased from Shanghai Yuanye Biotechnology Co., Ltd., used for inducing atopic models) was applied to each mouse's ears once daily for 14 consecutive days to induce the atopic dermatitis model. […] Measure ear thickness changes every 2 days using an electronic caliper before modeling and after treatment initiation.
(§3) Skin Lesion Severity Score: Daily skin lesion severity was assessed in mice using the following criteria, primarily encompassing four symptoms: 1) erythema/hemorrhage; 2) dryness; 3) desquamation/erosion; 4) edema. Each symptom was scored from 0 to 3 based on lesion severity: no symptoms=0 points, mild=1 point, moderate=2 points, severe=3 points. […] Higher scores indicated more severe lesions, with a maximum score of 12. Statistical analysis was performed on the data.

Series [3] has as its system inflammatory markers in the ears of AD mice. Kind of series: MC903-induced atopic dermatitis of the ear, ointment: mRNA of inflammatory markers. It is filed as in vivo, mouse. As to the method: as §1, §2
The test system of series [4] is T cells / MDSCs. As to the kind of experiment: Promotion of T cell proliferation in a co-culture model of MDSCs and T cells. The note with it: for activation at 1 µM: Mus musculus, T-cell, 12 h, read-out: T-cell proliferation rate (%), 1 μM, MDSCs treated 12 hours, co-culture of MDSCs and T cells, compared to the control group. It is filed as cell-based, mouse. A digest of the protocol: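 Bone-marrow MDSCs, after compound treatment, were co-cultured 48 h at 1:1 with CFDA-SE-labelled (10 μM solution), activated splenic T cells. Proliferation of CD3+ T cells was read by flow cytometry.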

The test system of series [5] is CCR2 mRNA. As to the kind of experiment: Inhibition of CCR2 mRNA level in MDSCs. It is filed as cell-based. The settings on record: Mus musculus, 2 h, read-out: Suppression Rate (inhibition of CCR2 mRNA levels). As to the method: Under sterile conditions, the tibia was removed, both ends of the bone were cut, and bone marrow was repeatedly flushed into a 15 mL centrifuge tube using a 1 mL syringe filled with culture medium. Centrifuge at 1600 rpm for 5 min to collect bone marrow cells. […] Count cells and adjust density to 1×10^6 cells/mL in complete medium. Seed cells uniformly into 6-well plates at 2 mL per well. […] After incubation, collect cells into centrifuge tubes, centrifuge at 1600 rpm for 5 min, wash once with 1×PBS, and add 500 μL RNA extraction reagent to each tube. After centrifugation to obtain the pellet, add 20 μL DEPC-treated water to each tube to dissolve the pellet. Determine RNA concentration and reverse transcribe to cDNA. Add the cDNA, primers, and […] to a 96-well plate. Centrifuge at 4000 rpm for 5 min, then place in a PCR instrument for detection.

The subject of series [6] is dorsal atopic dermatitis. As to the kind of experiment: MC903-induced atopic dermatitis of the dorsum, ointment: skin thickness, dermatitis score, lesions. It is filed as in vivo, mouse. The note with it: for inhibition rate of dorsal skin thickness increase: final day. The method, then: as §1
Except for the Normal group, all other groups underwent AD modeling: 48 hours prior to the experiment, hair on the dorsal neck region was meticulously removed using clippers and depilatory cream. Following modeling initiation, 20 μL of MC903 solution was applied once daily to the dorsal neck region for 14 consecutive days to induce the AD model. […] Model and control group mice received daily application of blank ointment. Twenty-four hours after completing the 14-day modeling period, photographs of skin lesions were taken, and skin lesion and blood samples were collected.
as §3

Series [7] relates to MDSCs. As to the kind of experiment: Inhibition of MDSC chemotaxis (Transwell, tumor-conditioned medium). Type of series: cell-based, mouse. Set-up: inhibition of MDSC chemotaxis compared to Arg: dose or concentration left out as unconfirmed. The method, then: Hepa1-6 mouse hepatocellular carcinoma cells were uniformly seeded into 6-well plates. After cells reached confluence, supernatant was aspirated, and 1-1.5 mL fresh medium was added to each well. Following 24 h culture, supernatant was collected, centrifuged at 1600 rpm for 5 min, aspirated, and filtered through a 0.22 μm membrane to obtain tumor-conditioned medium for subsequent use. […] Under sterile conditions, remove the tibia, cut both ends of the bone, and aspirate the bone marrow into a 1 mL syringe. Repeat flushing into a 15 mL centrifuge tube. Centrifuge at 1600 rpm for 5 min to collect bone marrow cells. Wash twice with 1×PBS. […] Count cells, adjust density to 1×10^6 cells/mL, and uniformly seed into 24-well plates at 300 μL per well. […] Centrifuge at 1600 rpm for 5 min, remove supernatant, resuspend cells in 300 μL fresh medium, and place into Transwell chambers. […] Co-culture for 24 h.

Series [8] concerns Hepa1-6 transplanted tumor. The note with it: 30 mg/kg i.p., 14 consecutive days; cited from earlier work.
In series [9] the test system is tumor cells. The settings on record: in vitro cell models, result in words; cited from earlier work.
For series [10], the system named is HepG2 and Huh7 HCC cell transplanted tumor. The note with it: HepG2 and Huh7 transplanted tumor models; cited from earlier work.
[11] abbreviates: Mus musculus, read-out: Suppression Rate (MDSC chemotaxis).

Consider two compounds from US20260315434A1, “USE OF GUAIACOL SESQUITERPENE LACTONE DERIVATIVES” (NANJING UNIVERSITY OF CHINESE MEDICINE, priority 2023, published 2026).

Molecules are shown by their SMILES. ≈ marks a conversion by molar mass, not a printed value.

In series [1], `C=C1C(=O)O[C@@H]2[C@@H]3[C@]4(CC[C@@]3(C)O)C[C@]4(C)CC[C@@H]12` [Compound 1] returned a solubility of 1140 µg/mL (≈ 4.35 mM). The “Dermatitis Score, ear” value in [2] (0.01% ointment, 7 days, max score 12) was 3.50 ± 0.22. Further, the “AD-like skin lesions on the ears” value in series [2] (0.01%, 0.1%, 1% ointment) is given as “significantly alleviated”. For the same compound, the “inhibition rate of ear thickness increase” value in series [2] (0.01% ointment) amounted to 71%; in [2] (0.1% ointment), 71%; in series [2] (1% ointment) it was 80%. In addition, in series [3] (0.01% ointment), the “I113 mRNA expression, ear” value is 3.30 ± 0.47. The “I131 mRNA expression, ear” value in series [3] (0.1% ointment) worked out at 1.64 ± 0.25; in series [3] (1% ointment) it was 1.10 ± 0.19. Further, the “T cell proliferation in MDSC-T cell co-culture” value in series [4] (1 μM, result in words) is “significantly enhanced T-cell proliferation”. In series [4], the activation at 1 µM is greater than 40%. Also, the inhibition at 1 µM in series [5] was 35.2%; in series [7] (setting [11]), 42.3%. In addition, the inhibition at 10 µM was 76.5% in series [5] and 83.3% in [7] (setting [11]). For the same compound, in series [6] (0.01%, 0.1%, 1% ointment), the “AD-like skin lesions on the backs” value is listed as “significantly alleviated”. Moreover, the “Dermatitis Score, back” value in [6] (0.1% ointment, 7 days, max score 12) came out at 2.50 ± 0.22. Moreover, the figures for the “inhibition rate of dorsal skin thickness increase” value in series [6] (0.01% ointment), in series [6] (0.1% ointment) and in series [6] (1% ointment) were 66%, 72% and 83%, respectively. The “inhibition of MDSC chemotaxis compared to Arg” value in [7] (result in words) is listed as “superior inhibition rates”.
Regarding `C=C1C(=O)O[C@H]2[C@H]1CCC(C)=C1CC[C@@](C)(O)[C@@H]12` [MCL, Micheliolide], the activation at 1 µM in [4] is 20 to 40%. Further, the “tumor weight inhibition rate” value in series [8] is recorded as 50%. In addition, the “IC50, tumor cell growth inhibition” value in series [9] was “in the micromolar range”. In series [10], the “effective dose, intraperitoneal” value is 25 mg/kg.

Usually solubility stands for the concentration that dissolves in the medium under given conditions.
